According to patent US20110281836A1, “Silent desensitizers of neuronal NACHR and methods of use thereof” (priority 2008, published 2011):

Assays:
[1] = in vivo; cited from earlier work
α3β4 nAChRs [2] = biological target: T1, α3β4 nAChRs (Rattus norvegicus, UniProt P04757+P12392); experiment: radioligand ([3H]epibatidine) competition binding, α3β4 nAChR
T1 construct: expressed in transfected cells; host or cells: HEK293 (KXα3β4R2)
Description: (§1) A. Cell Lines and Cell Culture. The cell lines KXα3β4R2, expressing rat α3β4 nAChRs, and KXα4β2, expressing rat α4β2 nAChRs, were established previously by stably transfecting human embryonic kidney 293 cells with combinations of rat nAChR subunit genes. These cell lines are maintained in minimum essential medium supplemented with 10% fetal bovine serum, 100 units/mL penicillin G, […] streptomycin, and 0.7 mg/mL G418 (Geneticin) at 37° C. with 5% CO2 in a humidified incubator. The cell line SH-EP1-pcDNA-hα4β2, expressing human α4β2 nAChRs, was described previously and are available. […]
B. nAChR Binding Affinity and Sub-type Selectivity Assay. The Ki values of compounds for binding to α3β4, α4β2 and other nAChR sub-types will be measured by competition experiments with [3H]epibatidine or other labeled ligands. […]
In brief, cultured cells at above about 80% confluence will be removed from their flasks (80 cm^2) with a disposable cell scraper and will be placed in 10 mL of 50 mM Tris-HCl buffer, pH 7.4, 4° C. […] Nonspecific binding will be assessed in parallel incubations in the presence of 300 μM nicotine. […] The filter-retained radioactivity will be measured by liquid scintillation counting. […] Data from saturation and competition binding assays will be analyzed using Prism 4 (GraphPad Software, San Diego, Calif.).

α4β2 nAChRs [3] = biological target: T2, α4β2 nAChRs (Homo sapiens, UniProt P17787+P43681); experiment: desensitizer test: 86Rb+ efflux after 10 min preincubation, α4β2 nAChR; assay type: cell-based
T2 construct: expressed in transfected cells; host or cells: SH-EP1 (SH-EP1-pcDNA-hα4β2)
Description: as §1
C. nAChR Functional Assay. The agonist, antagonist and/or desitizer activity of compounds of the invention can be evaluated by measuring its blockade of nicotine-stimulated 86Rb+ efflux. […]
In brief, cells will be plated into 24-well plates coated with poly-D-lysine. […] Radioactivity of assay samples and lysates will be measured by liquid scintillation counting. Total loading (cpm) will be calculated as the sum of the assay sample and the lysate of each well. The amount of 86Rb+ efflux will be expressed as a percentage of 86Rb+ loaded. […] IC50 values will be determined by nonlinear least-squares regression analyses (GraphPad Software).
D. Measurement of Desensitization. Not intending to be bound by any one method, desensitization may be measured, for example, by the method described below. […]

α4β2 nAChRs [4] = biological target: T3, α4β2 nAChRs (Rattus norvegicus, UniProt P09483+P12390); experiment: radioligand ([3H]epibatidine) competition binding, α4β2 nAChR
T3 construct: expressed in transfected cells; host or cells: HEK293 (KXα4β2)
Description: A. Cell Lines and Cell Culture. The cell lines KXα3β4R2, expressing rat α3β4 nAChRs, and KXα4β2, expressing rat α4β2 nAChRs, were established previously by stably transfecting human embryonic kidney 293 cells with combinations of rat nAChR subunit genes. These cell lines are maintained in minimum essential medium supplemented with 10% fetal bovine serum, 100 units/mL penicillin G, […] streptomycin, and 0.7 mg/mL G418 (Geneticin) at 37° C. with 5% CO2 in a humidified incubator. The cell line SH-EP1-pcDNA-hα4β2, expressing human α4β2 nAChRs, was described previously and are available. The SH-EP1-pcDNA-hα4β2 cells are grown in Dulbecco's modified Eagle's medium supplemented with 5% fetal bovine serum, 10% horse serum, 100 units/mL penicillin G, 100 μg/mL streptomycin, 320 μg/mL hygromycin B (Calbiochem, La Jolla, Calif.), 400 units/mL Zeocin at 37° C. with 5% CO2 in a humidified incubator.
B. nAChR Binding Affinity and Sub-type Selectivity Assay. The Ki values of compounds for binding to α3β4, α4β2 and other nAChR sub-types will be measured by competition experiments with [3H]epibatidine or other labeled ligands. Not intending to be bound by any one approach, one radioligand binding assay used for measuring the binding of [3H]epibatidine to nAChRs is described below.
In brief, cultured cells at above about 80% confluence will be removed from their flasks (80 cm^2) with a disposable cell scraper and will be placed in 10 mL of 50 mM Tris-HCl buffer, pH 7.4, 4° C. The cell suspension will be centrifuged at 10,000 g for 5 min and the pellet will be collected. For cells undergoing prolonged treatment with nicotinic agonists during culturing, the pellet will be washed two more times by centrifugation in fresh buffer to remove residual drug. The cell pellet will then homogenized in 10 mL of buffer with a Polytron homogenizer (12-mm aggregate, 26,000 rpm, 20 s; model PT2100; Kinematica, Basel, Switzerland) and will be centrifuged at 36,000 g for 10 min at 4° C. The membrane pellet will be resuspended in fresh buffer, and aliquots of the membrane preparation equivalent to 30 to 200 μg of protein will be used for binding assays. The concentration of [3H]epibatidine used will be 100 pM for competition binding assays and 2.4 nM, which is a saturating concentration for the α4β2 receptor subtype, for measuring receptor density. Nonspecific binding will be assessed in parallel incubations in the presence of 300 μM nicotine. Bound and free ligands will be separated by vacuum filtration through Whatman GF/C filters treated with 0.5% polyethylenimine. The filter-retained radioactivity will be measured by liquid scintillation counting. […] Data from saturation and competition binding assays will be analyzed using Prism 4 (GraphPad Software, San Diego, Calif.).

α4β2 nAChRs [5] = biological target: T2, α4β2 nAChRs; conditions: cited from earlier work
α3β4 nAChRs [6] = biological target: T1, α3β4 nAChRs; conditions: radioligand binding assays; cited from earlier work
α7 nAChRs = conditions: radioligand binding assays; cited from earlier work
[7] = stability of the isolated HCl salt on exposure to air; assay type: physicochemical; conditions: white solid, larger scale
Excerpt: A gram-scale synthesis of sazetidine A is outlined in FIG. 1a. The Boc-protected azidityl methyl alcohol 2 and 3-bromo-5-hydroxy pyridine (3) are both commercially available. Treatment with PPh3 and DEAD according to the Mitsunobu protocol formed ether derivative 4 in 70% yield. Palladium-mediated coupling of the bromo-substituted pyridine 4 with 5-hexyn-1-ol under modified Sonogashira conditions furnished Boc-protected sazetidine A in 73% yield. Deprotection of the Boc-group with HCl was expected to give sazetidine A in salt form as published in the literature.

α4β2 nAChRs [8] = biological target: T2, α4β2 nAChRs; conditions: preincubated for 10 min with the cells; complete desensitization; cited from earlier work
α3β4 nAChRs [9] = biological target: T1, α3β4 nAChRs; conditions: concentrations up to 10 μM, even after preincubation; cited from earlier work

Row | Compound | analgesic potency [1] | Ki (α3β4 nAChRs [2]) [nM] | IC50 (α4β2 nAChRs [3]) [nM] | Ki (α4β2 nAChRs [4]) [nM] | decrease in Ki relative to sazetidine A (α4β2 nAChRs [4]; triazole in place of the alkynyl group) | selectivity for the α4β2 receptor (α4β2 nAChRs [4]; α4β2 over α3β4, from Ki values) | agonist activity at α4β2 nAChRs (α4β2 nAChRs [5]; added alone) | antagonist activity at α4β2 receptors (α4β2 nAChRs [5]; added simultaneously with an agonist, such as nicotine) | selectivity, affinity at α4β2 compared to α3β4 nAChRs (α3β4 nAChRs [6]) | selectivity, affinity at α4β2 compared to α7 nAChRs (α7 nAChRs) | stability on exposure to air [7] | EC50 (α4β2 nAChRs [8]) [nM] | effect on the function of α3β4 nAChRs (α3β4 nAChRs [9])
1 | Clc1ccc(C2CC3CCC2N3)cn1 (centres unmarked) [Epibatidine] | ~200 times that of morphine | – | – | – | – | – | – | – | – | – | – | – | –
2 | OCCCCc1cn(-c2cncc(OCC3CCN3)c2)nn1 (centres unmarked) [triazetidine O] | – | 62000 | 100 | 3.51 | approximately 10 fold | 17,692 fold | – | – | – | – | – | – | –
3 | OCCCCC#Cc1cncc(OCC2CCN2)c1 (centres unmarked) [sazetidine A] | – | – | – | 0.41 | – | – | low agonist activity | no typical antagonist activity | greater than 10,000 fold | > 3,500 fold | decomposition of the material to a yellow-brown wet solid | 26 | no effect
